Measured values reported in patent publication US7659245B2, “Macrocylic inhibitors of hepatitis C virus” (Tibotec Pharmaceuticals Ltd, priority 2005, dated 2010).

Tests used:
[1] = test system: HCV replicons (Huh-7 luc/neo cells, NS3-NS5B regions of HCV type 1b); test: Replicon assay: inhibition of HCV RNA replication in Huh-Luc cells (luciferase read-out); type: cell-based; details: Hepatitis C virus, Huh-7, 72 h, HCV type 1b replicon, luciferase activity after three days
Protocol: The in vitro antiviral activity against HCV of the compounds of formula (I) was tested in a cellular HCV replicon system based on Lohmann et al. (1999) Science 285:110-113, with the further modifications described by Krieger et al. (2001) Journal of Virology 75: 4614-4624 (incorporated herein by reference), which is further exemplified in the examples section. This model, while not a complete infection model for HCV, is widely accepted as the most robust and efficient model of autonomous HCV RNA replication currently available. […] It will be appreciated that it is important to distinguish between compounds that specifically interfere with HCV functions from those that exert cytotoxic or cytostatic effects in the HCV replicon model, and as a consequence cause a decrease in HCV RNA or linked reporter enzyme concentration. Assays are known in the field for the evaluation of cellular cytotoxicity based for example on the activity of mitochondrial enzymes using fluorogenic redox dyes such as resazurin. Furthermore, cellular counter screens exist for the evaluation of non-selective inhibition of linked reporter gene activity, such as firefly luciferase. Appropriate cell types can be equipped by stable transfection with a luciferase reporter gene whose expression is dependent on a constitutively active gene promoter, and such cells can be used as a counter-screen to eliminate non-selective inhibitors.
The compounds of formula (I) were examined for activity in the inhibition of HCV RNA replication in a cellular assay. […] The cellular assay was based on a bicistronic expression construct, as described by Lohmann et al. (1999) Science vol. 285 pp. 110-113 with modifications described by Krieger et al. (2001) Journal of Virology 75: 4614-4624, in a multi-target screening strategy. In essence, the method was as follows.
The assay utilized the stably transfected cell line Huh-7 luc/neo (hereafter referred to as Huh-Luc). This cell line harbors an RNA encoding a bicistronic expression construct comprising the wild type NS3-NS5B regions of HCV type 1b translated from an Internal Ribosome Entry Site (IRES) from encephalomyocarditis virus (EMCV), preceded by a reporter portion (FfL-luciferase), and a selectable marker portion (neo^R, neomycine phosphotransferase). The construct is bordered by 5′ and 3′ NTRs (non-translated regions) from HCV type 1b. Continued culture of the replicon cells in the presence of G418 (neo^R) is dependent on the replication of the HCV RNA. The stably transfected replicon cells that express HCV RNA, which replicates autonomously and to high levels, encoding inter alia luciferase, are used for screening the antiviral compounds.
The replicon cells were plated in 384 well plates in the presence of the test and control compounds which were added in various concentrations. Following an incubation of three days, HCV replication was measured by assaying luciferase activity (using standard luciferase assay substrates and reagents and a Perkin Elmer ViewLux™ ultraHTS microplate imager). Replicon cells in the control cultures have high luciferase expression in the absence of any inhibitor. The inhibitory activity of the compound on luciferase activity was monitored on the Huh-Luc cells, enabling a dose-response curve for each test compound. EC50 values were then calculated, which value represents the amount of the compound required to decrease by 50% the level of detected luciferase activity, or more specifically, the ability of the genetically linked HCV replicon RNA to replicate.

[2] = target: full-length hepatitis C NS3 protease enzyme (HCV NS3/4A protease complexes) (Hepatitis C virus genotype 1a, UniProt P27958); test: Inhibition assay (enzymatic assay) of HCV NS3/4A protease; type: biochemical; details: enzyme 1 nM, 25 μM NS4A cofactor, 0.5 μM depsipeptide substrate, 30° C., competitive model
full-length hepatitis C NS3 protease enzyme (HCV NS3/4A protease complexes), sequence (P27958 1027-1657, one chain of several): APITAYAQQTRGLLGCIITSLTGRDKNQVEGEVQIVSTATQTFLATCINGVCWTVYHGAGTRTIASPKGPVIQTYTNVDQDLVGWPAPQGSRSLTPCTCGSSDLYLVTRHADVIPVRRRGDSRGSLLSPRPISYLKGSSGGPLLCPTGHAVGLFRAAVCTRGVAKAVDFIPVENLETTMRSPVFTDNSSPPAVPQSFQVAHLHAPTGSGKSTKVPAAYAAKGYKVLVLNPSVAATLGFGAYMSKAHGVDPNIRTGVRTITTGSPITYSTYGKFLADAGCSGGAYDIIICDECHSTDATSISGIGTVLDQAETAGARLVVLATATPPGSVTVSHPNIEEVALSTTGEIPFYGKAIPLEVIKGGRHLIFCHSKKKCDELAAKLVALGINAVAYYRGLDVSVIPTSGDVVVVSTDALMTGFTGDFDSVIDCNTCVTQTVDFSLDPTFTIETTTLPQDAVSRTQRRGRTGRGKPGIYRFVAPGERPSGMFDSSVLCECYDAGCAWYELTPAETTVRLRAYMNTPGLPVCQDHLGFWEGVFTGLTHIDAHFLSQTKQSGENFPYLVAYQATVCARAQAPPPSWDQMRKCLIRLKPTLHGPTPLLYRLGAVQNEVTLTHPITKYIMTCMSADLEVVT
Protocol: The aim of this in vitro assay is to measure the inhibition of HCV NS3/4A protease complexes by the compounds of the present invention. This assay provides an indication of how effective compounds of the present invention would be in inhibiting HCV NS3/4A proteolytic activity.
The inhibition of full-length hepatitis C NS3 protease enzyme was measured essentially as described in Poliakov, 2002 Prot Expression & Purification 25 363 371. Briefly, the hydrolysis of a depsipeptide substrate, Ac-DED(Edans)EEAbuψ[COO]ASK(Dabcyl)-NH2 (AnaSpec, San José, USA), was measured spectrofluorometrically in the presence of a peptide cofactor, KKGSVVIVGRIVLSGK (Åke Engström, Department of Medical Biochemistry and Microbiology, Uppsala University, Sweden). [Landro, 1997 #Biochem 36 9340-9348]. The enzyme (1 nM) was incubated in 50 mM HEPES, pH 7.5, 10 mM DTT, 40% glycerol, 0.1% n-octyl-D-glucoside, with 25 μM NS4A cofactor and inhibitor at 30° C. for 10 min, whereupon the reaction was initiated by addition of 0.5 μM substrate. Inhibitors were dissolved in DMSO, sonicated for 30 sec. and vortexed. The solutions were stored at −20° C. between measurements.
The final concentration of DMSO in the assay sample was adjusted to 3.3%. The rate of hydrolysis was corrected for inner filter effects according to published procedures. [Liu, 1999 Analytical Biochemistry 267 331-335]. Ki values were estimated by non-linear regression analysis (GraFit, Erithacus Software, Staines, MX, UK), using a model for competitive inhibition and a fixed value for Km (0.15 μM). A minimum of two replicates was performed for all measurements.

| SMILES | EC50 [1] | Ki [2] |
| --- | --- | --- |
| COc1ccc2c(O[C@@H]3C[C@H]4C(=O)N[C@]5(C(=O)NS(=O)(=O)C6CC6)C[C@H]5/C=C\CCCCCNC(=O)N4C3)nc(-c3ccc(F)cc3)nc2c1C [Compound 104, Cyclopropanesulfonic acid {18-[2-(4-fluoro-phenyl)-7-methoxy-8-methyl-quinazolin-4-yloxy]-2,15-dioxo-3,14,16-triaza-tricyclo[14.3.0.0*4,6*]nonadec-7-ene-4-carbonyl}-amide] | 0.5 to 199 nM | 0.1 to 4.9 nM |
| COc1cc2nc(-c3ccccc3)nc(O[C@@H]3C[C@H]4C(=O)N[C@]5(C(=O)NS(=O)(=O)C6CC6)C[C@H]5/C=C\CCCCN(C)C(=O)[C@@H]4C3)c2cc1C [Compound 114] | 0.5 to 199 nM | 0.1 to 4.9 nM |
| COc1ccc2c(O[C@@H]3C[C@H]4C(=O)N[C@]5(C(=O)NS(=O)(=O)C6CC6)C[C@H]5/C=C\CCCCN(C)C(=O)N4C3)nc(-c3cccc(C)n3)nc2c1C [Compound 119, Cyclopropanesulfonic acid {17-[7-methoxy-8-methyl-2-(6-methyl-pyridin-2-yl)-quinazolin-4-yloxy]-13-methyl-2,14-dioxo-3,13,15-triazatricyclo[13.3.0.0*4,6*]octadec-7-ene-4-carbonyl}-amide] | 0.5 to 199 nM | 0.1 to 4.9 nM |
| COc1cc2nc(-c3ccccc3)nc(O[C@@H]3C[C@H]4C(=O)N[C@]5(C(=O)NS(=O)(=O)C6CC6)C[C@H]5/C=C\CCCCN(C)C(=O)N4C3)c2cc1C [Compound 121, Cyclopropanesulfonic acid [17-(7-methoxy-6-methyl-2-phenyl-quinazolin-4-yloxy)-13-methyl-2,14-dioxo-3,13,15-triaza-tricyclo[13.3.0.0*4,6*]octadec-7-ene-4-carbonyl]-amide] | 0.5 to 199 nM | 0.1 to 4.9 nM |
| COc1ccc(-c2nc(O[C@@H]3C[C@H]4C(=O)N[C@]5(C(=O)NS(=O)(=O)C6CC6)C[C@H]5/C=C\CCCCN(C)C(=O)N4C3)c3ccc(OC)c(C)c3n2)cc1 [Compound 131, Cyclopropanesulfonic acid {17-[7-methoxy-2-(4-methoxy-phenyl)-8-methyl-quinazolin-4-yloxy]-13-methyl-2,14-dioxo-3,13,15-triaza-tricyclo[13.3.0.0*4,6*]-octadec-7-ene-4-carbonyl}-amide] | 0.5 to 199 nM | 0.1 to 4.9 nM |
| COc1ccc(-c2nc(O[C@@H]3C[C@H]4C(=O)N[C@]5(C(=O)NS(=O)(=O)C6(C)CC6)C[C@H]5/C=C\CCCCN(C)C(=O)N4C3)c3ccc(OC)c(C)c3n2)cc1 [Compound 132, 1-Methyl-cyclopropanesulfonic acid {17-[7-methoxy-2-(4-methoxy-phenyl)-8-methyl-quinazolin-4-yloxy]-13-methyl-2,14-dioxo-3,13,15-triaza-tricyclo[13.3.0.0*4,6*]octadec-7-ene-4-carbonyl}-amide] | 0.5 to 199 nM | 0.1 to 4.9 nM |
| COc1ccc(-c2nc(O[C@@H]3C[C@H]4C(=O)N[C@]5(C(=O)NS(=O)(=O)C6CC6)C[C@H]5/C=C\CCCCN(C)C(=O)[C@@H]4C3)c3ccc(OC)c(C)c3n2)cc1 [Compound 138, Cyclopropanesulfonic acid {17-[7-methoxy-2-(4-methoxy-phenyl)-8-methyl-quinazolin-4-yloxy]-13-methyl-2,14-dioxo-3,13-diaza-tricyclo[13.3.0.0*4,6*]octadec-7-ene-4-carbonyl}-amide] | 0.5 to 199 nM | 0.1 to 4.9 nM |
| COc1ccc2c(O[C@@H]3C[C@H]4C(=O)N[C@]5(C(=O)NS(=O)(=O)C6CC6)C[C@H]5/C=C\CCCCN(C)C(=O)[C@@H]4C3)nc(-n3ccc(C(C)C)n3)nc2c1C [Compound 147, N-[17-[2-(3-isopropylpyrazol-1-yl)-7-methoxy-8-methylquinazolin-4-yloxy]-13-methyl-2,14-dioxo-3,13-diazatricyclo[13.3.0.0^4,6]octadec-7-ene-4-carbonyl](cyclo-propyl)sulfonamide] | 0.5 to 199 nM | 0.1 to 4.9 nM |
| CCOc1nc(O[C@@H]2C[C@H]3C(=O)N[C@]4(C(=O)NS(=O)(=O)C5CC5)C[C@H]4/C=C\CCCCN(C)C(=O)[C@@H]3C2)c2ccc(OC)c(C)c2n1 [Compound 150, N-[17-[2-Ethoxy-7-methoxy-8-methylquinazolin-4-yloxy]-13-methyl-2,14-dioxo-3,13-diazatricyclo[13.3.0.0^4,6]octadec-7-ene-4-carbonyl](cyclopropyl)sulfonamide] | 0.5 to 199 nM | 0.1 to 4.9 nM |
| COc1ccc2c(O[C@H]3CC4C(=O)N(C)CCCC/C=C\[C@@H]5C[C@@]5(C(=O)NS(=O)(=O)C5CC5)NC(=O)[C@@H]4C3)nc(-c3ccc(F)cc3)nc2c1C (stereo partly shown) [Compound 154] | 0.5 to 199 nM | 0.1 to 4.9 nM |
| COc1ccc2c(O[C@@H]3C[C@H]4C(=O)N[C@]5(C(=O)NS(=O)(=O)C6CC6)C[C@H]5/C=C\CCCCN(C)C(=O)[C@@H]4C3)nc(-c3cccc(F)c3)nc2c1C [Compound 160, Cyclopropanesulfonic acid {17-[2-(3-fluoro-phenyl)-7-methoxy-8-methyl-quinazolin-4-yloxy]-13-methyl-2,14-dioxo-3,13-diaza-tricyclo[13.3.0.0*4,6*]octadec-7-ene-4-carbonyl}-amide] | 0.5 to 199 nM | 0.1 to 4.9 nM |
| COc1ccc2c(O[C@@H]3C[C@H]4C(=O)N[C@]5(C(=O)NS(=O)(=O)C6(C)CC6)C[C@H]5/C=C\CCCCN(C)C(=O)[C@@H]4C3)nc(-c3cccc(F)c3)nc2c1C [Compound 161, 1-Methyl-cyclopropanesulfonic acid {17-[2-(3-fluoro-phenyl)-7-methoxy-8-methyl-quinazolin-4-yloxy]-13-methyl-2,14-dioxo-3,13-diazatricyclo[13.3.0.0*4,6*]octadec-7-ene-4-carbonyl}-amide] | 0.5 to 199 nM | 0.1 to 4.9 nM |
| COc1ccc2c(O[C@@H]3C[C@H]4C(=O)N[C@]5(C(=O)NS(=O)(=O)C(C)C)C[C@H]5/C=C\CCCCN(C)C(=O)[C@@H]4C3)nc(-c3cccc(F)c3)nc2c1C [Compound 162, Propane-2-sulfonic acid {17-[2-(3-fluoro-phenyl)-7-methoxy-8-methyl-quinazolin-4-yloxy]-13-methyl-2,14-dioxo-3,13-diazatricyclo[13.3.0.0*4,6*]octadec-7-ene-4-carbonyl}-amide] | 200 to 990 nM | 0.1 to 4.9 nM |
| COc1ccc2c(O[C@@H]3C[C@H]4C(=O)N[C@]5(C(=O)NS(=O)(=O)C6CC6)C[C@H]5/C=C\CCCCN(C)C(=O)N4C3)nc(-c3cccc(F)c3)nc2c1C [Compound 165, Cyclopropanesulfonic acid {17-[2-(3-fluoro-phenyl)-7-methoxy-8-methyl-quinazolin-4-yloxy]-13-methyl-2,14-dioxo-3,13,15-triaza-tricyclo[13.3.0.0*4,6*]octadec-7-ene-4-carbonyl}-amide] | 0.5 to 199 nM | 0.1 to 4.9 nM |
